Laboratory results taken from ChEMBL document CHEMBL1125073, “Antitubulin effects of derivatives of 3-demethylthiocolchicine, methylthio ethers of natural colchicinoids, and thioketones derived from thiocolchicine. Comparison with colchicinoids” (J Med Chem, 1990).
pIC50: −log10 of the molar value.

Key:
L1210 = assay: cells; settings: Mus musculus
Description: In vitro cytotoxicity against L1210 (murine leukemia) cells.

Mus musculus = species on record: Mus musculus; settings: in vivo, im
Description: Acute toxicity after intramuscular injection in mice.

| SMILES | pIC50 (L1210) | Toxicity (Mus musculus) |
| --- | --- | --- |
| COc1cc2c(c(OC)c1OC)-c1ccc(SC)c(=S)cc1[C@@H](/N=C(/C)S)CC2 | 7.40 |  |
| COc1c2c(cc3c1-c1ccc(OC)c(=O)cc1[C@@H](NC(C)=O)CC3)OCO2 |  | 9.7 mg/kg |
| COc1cc2c(c(OC)c1OC)-c1ccc(SC)c(=S)cc1[C@@H](NC(C)=O)CC2 | 7.52 |  |
| COc1c2c(cc3c1-c1ccc(SC)c(=O)cc1[C@@H](NC(C)=O)CC3)OCO2 [THIOCORNIGERINE] | 8.00 |  |
